From patent US7390834B2, “Cyanophenoxy carboxylic acid compounds and compositions for delivering active agents” (Emisphere Technologies, Inc., priority 2000, dated 2008) come the findings set out here.

Data set [1] in a line: Oral and intracolonic delivery of heparin in rats (APTT). It counts as in vivo, Sprague-Dawley rats. Particulars: Heparin Dose 1 mg/kg, maximum of group means, n=5. As to the method:
Oral gavage (PO) and intracolonic (IC) dosing solutions containing a delivery agent compound and heparin sodium USP in 25% aqueous propylene glycol were prepared. Either the sodium salt of the delivery agent compound was used or the free acid was converted to the sodium salt with one equivalent of sodium hydroxide. Typically, the delivery agent compound and heparin (about 166-182 IU/mg) were mixed by vortex as dry powders. This dry mixture was dissolved in 25% v/v aqueous propylene glycol, vortexed and placed in a sonicator (about 37° C.). The pH was adjusted to about 7 (6.5 to 8.5) with aqueous NaOH (2N). The dosing solution was sonicated to produce a clear solution. The final volume was adjusted to 3.0 mL. The final delivery agent compound dose, heparin dose and volume dose amounts are listed below in Table 2.
The typical dosing and sampling protocols were as follows. Male Sprague-Dawley rats weighing between 275-350 g were fasted for 24 hours and were anesthetized with ketamine hydrochloride (88 mg/kg) intramuscularly immediately prior to dosing. A dosing group of five rats was administered one of the dosing solutions. For oral gavage (PO) dosing, an 11 cm Rusch 8 French catheter was adapted to a 1 mL syringe with a pipette tip. The syringe was filled with dosing solution by drawing the solution through the catheter, which was then wiped dry. The catheter was placed down the esophagus leaving 1 cm of tubing past the rat's incisors. Solution was administered by pressing the syringe plunger. For intracolonic (IC) dosing, a 7.5 cm 8 fr Rusch catheter was adapted to a 1 ml syringe with a pipette tip. The dosing catheter was inserted into the colon through the anus until the tube was no longer visible. The dosing solution was expressed slowly into the colon.
Citrated blood samples were collected by cardiac puncture following the administration of ketamine (88 mg/kg), typically at time—0.25, 0.5, 1.0 and 1.5 hours. Heparin activity was determined by utilizing the activated partial thromboplastin time (APTT) according to the method of Henry, J. B., Clinical Diagnosis and Management by Laboratory Methods, Philadelphia, Pa., W. B. Saunders (1979). Previous studied indicated baseline values of about 20 sec. Results from the five rats in each group were averaged for each time point. The maximum is reported below in Table 2.

Setting [2] is: Oral, as printed: Volume Dose 300 ml/kg, Compound Dose 100 mg/kg.

Usually melting point stands for the temperature of the solid-liquid transition. `N#Cc1ccccc1OCCCCCC(=O)O` (hydrate or solvate) [Compound 4, 6-(2-cyanophenoxy)hexanoic acid]: the melting point lay within 77 to 80 °C.
The same measure, in the same setting: then `N#Cc1ccccc1OCCCC(=O)O` [Compound 2, 4-(2-cyanophenoxy)butanoic acid], with 127 to 128 °C.
In turn, `N#Cc1ccccc1OCCCCC(=O)O` [Compound 3, 5-(2-cyanophenoxy) pentanoic acid] showed a melting point of 87 to 89 °C. Also, the “Mean Peak APTT (sec) ± SD” value in data set [1] (IC, as printed: Volume Dose 200 ml/kg, Compound Dose 25 mg/kg) stood at 16.23 ± 1.23 s. Also, in data set [1] (setting [2]), the “Mean Peak APTT (sec) ± SD” value came to 203.59 ± 72.97 s.
Regarding `N#Cc1ccccc1OCCCCCCCC(=O)O` [Compound 5, 8-(2-cyanophenoxy) octanoic acid], the melting point was in the range of 83 to 85 °C. Moreover, the “Mean Peak APTT (sec) ± SD” value in data set [1] (IC, as printed: Volume Dose 50 ml/kg, Compound Dose 25 mg/kg) came to 80.22 ± 45.70 s. The “Mean Peak APTT (sec) ± SD” value in data set [1] (setting [2]) worked out at 176.25 ± 175.01 s.
`N#Cc1ccccc1OCCCCCCCCCC(=O)O` [Compound 6, 10-(2-cyanophenoxy)decanoic acid] showed a melting point of 82 to 84 °C.
The same measure, in the same setting: to `N#Cc1cc(Cl)ccc1OCCCCC(=O)O` [Compound 7, 5-(4-chloro-2-cyanophenoxy)pentanoic acid] belongs 87 to 90 °C.
Take `N#Cc1ccc(OCCCCCCCC(=O)O)cc1` [Compound 8, 8-(4-cyanophenoxy)octanoic acid]: the melting point lay in the range of 137 to 140 °C.
The same measure, in the same setting: then `N#Cc1ccccc1OCc1ccc(C(=O)O)cc1` [Compound 9, 4-(2-cyanophenoxymethyl)benzoic acid], with 199 to 203 °C.
